We go through 2 compounds from US20120015056A1, “COMPOSITION COMPRISING EXTRACTS OR FRACTIONS OF SPECIFIC PLANTS, USE THEREOF AND PROCESS FOR PREPARING THE EXTRACTS” (priority 2010, published 2012).

SMILES strings stand for the structures.

Common to all, as to assay type: cell-based
Assay [1] concerns A549 (lung cancer). Description: MTT assay, viability of A549 at 500 nm. Also noted: value of the treated group, Mean value: unit not given here. Here is the method: (§1) Similarly, MTT assay was performed for lung cancer cell line A549 and liver cancer cell line HepG2. But, MTT solutions were added instead of XTT solutions; as a culture medium, RPMI1640 with L-glutamine (300 mg/L), 25 mM HEPES and 25 mM NaHCO3 90% and heat-inactivated fetal bovine serum (FBS) 10% was used for A549, and minimum essential medium, 25 mM HEPES and 25 mM NaHCO3 90% and heat-inactivated fetal bovine serum (FBS) 10% was used for HepG2; and MTT values were measured at 1 d, 2 d, 3 d and 4 d, respectively.
(§2) In the following, the values for the composition of the invention indicate the mean value of values obtained using the extracts of the Examples 1 to 3.
The following Table 6 and FIG. 11 show the value of the treated group determined in cell line A549.
(Tetrazolium assays rely on reduction of a dye to a coloured formazan, in cell work by metabolically active cells.)

Assay [2] has as its system HepG2 (liver cancer). Description: MTT assay, viability of HepG2 at 500 nm. Also noted: value of the treated group, Mean value: unit not given here. How it is done: as §1, §2
The following Table 7 and FIG. 12 show the value of the treated group determined in cell line HepG2.

The subject of assay [3] is TTU-1 (breast cancer). Description: XTT assay, viability of TTU-1 at 450 nm. Here is the method: Each of 5×10^3 breast cancer cells MDA-MB-231 and TTU-1 were seeded in a 96-well flat-bottomed microplate, and cultured in CO2 incubator. Cells were seeded in a 96-well tissue culture plate at a density of 10,000 cells for normal cells and 5,000 cells for cancer cells. DMEM plus 10% fetal bovine serum was used as a culture medium. […] […] After that, absorbance value were measured using microplate spectrophotometer at a wavelength of 450 nm. In addition, Annexin-V/PI-stained MDA-MB-231 and TTU-1 cells were photographed and observed.

In assay [4] the test system is MDA-MB-231 (breast cancer). Description: XTT assay, viability of MDA-MB-231 at 450 nm. Also noted: key to value of [the treated group−the blank group], Mean value: absorbance at 450 nm, treated minus blank. How it is done: Each of 5×10^3 breast cancer cells MDA-MB-231 and TTU-1 were seeded in a 96-well flat-bottomed microplate, and cultured in CO2 incubator. Cells were seeded in a 96-well tissue culture plate at a density of 10,000 cells for normal cells and 5,000 cells for cancer cells. DMEM plus 10% fetal bovine serum was used as a culture medium. At 24 hours after seeding, the extracts obtained in the Examples 1 to 3 were added to each well. At 12 hours after added the extracts, XTT solutions were added and then the cells were incubated for 2 hours. After that, absorbance value were measured using microplate spectrophotometer at a wavelength of 450 nm. In addition, Annexin-V/PI-stained MDA-MB-231 and TTU-1 cells were photographed and observed.
as §2
The following Table 4 and FIG. 9 show the value of [the treated group−the blank group] determined in cell line MDA-MB-231.

As for `O=c1[nH]cc(F)c(=O)[nH]1` [Example 5-FU, 5-FU], the “value of the treated group, Mean value” in assay [1] (1,000 ppm, 24 h) turned out to be 2.298; in assay [1] (1,000 ppm, 48 h), 1.697; in assay [1] (1,000 ppm, 72 h), 0.863; in assay [1] (1,000 ppm, 96 h) it was 0.42; in assay [2] (1,000 ppm, 24 h) it was 2.867; in assay [2] (1,000 ppm, 48 h), 1.998. The “value of the treated group, Mean value” in assay [2] (1,000 ppm, 72 h) is recorded as 1.853; in assay [2] (1,000 ppm, 96 h), 0.938.

Turning to `CC(=O)O[C@H]1C(=O)[C@@]2(C)[C@H]([C@H](OC(=O)c3ccccc3)[C@]3(O)C[C@H](OC(=O)[C@H](O)[C@@H](NC(=O)c4ccccc4)c4ccccc4)C(C)=C1C3(C)C)[C@]1(OC(C)=O)CO[C@@H]1C[C@@H]2O` [Taxol], the “course of the value as time goes by (FIG. 10)” value in assay [3] was “increasing”. Moreover, the “value of [the treated group−the blank group], Mean value” in assay [3] (1.2 × 10^−7M, 12 h) was 0.079; in assay [3] (1.2 × 10^−7M, 84 h) it was 0.123; in assay [3] (1.2 × 10^−7M, 108 h), 0.012; in assay [3] (1.2 × 10^−7M, 132 h), 0.084; in assay [3] (2.5 × 10^−6M, 12 h) it was 0.067; in assay [3] (2.5 × 10^−6M, 108 h), −0.002. The “value of [the treated group−the blank group], Mean value” was 0.035 in assay [3] (2.5 × 10^−6M, 132 h); 0.074 in assay [4] (1.2 × 10^−7M, 12 h); 0.107 in assay [4] (1.2 × 10^−7M, 84 h); −0.006 in assay [4] (1.2 × 10^−7M, 108 h); 0.034 in assay [4] (1.2 × 10^−7M, 132 h); 0.076 in assay [4] (2.5 × 10^−6M, 12 h). Moreover, the “value of [the treated group−the blank group], Mean value” in assay [4] (2.5 × 10^−6M, 84 h) is 0.085; in assay [4] (2.5 × 10^−6M, 108 h) it was 0.024; in assay [4] (2.5 × 10^−6M, 132 h), −0.007. The “course of the value as time goes by (FIG. 9)” value in assay [4] is “increasing”. The “course of the value as time goes by (FIG. 11)” value in assay [1] is given as “increasing”. The “value of the treated group, Mean value” in assay [1] (35.1 uM/ml, 24 h) amounted to 2.438; in assay [1] (35.1 uM/ml, 48 h), 2.753; in assay [1] (35.1 uM/ml, 72 h), 2.6; in assay [1] (35.1 uM/ml, 96 h), 2.934; in assay [1] (70.2 uM/ml, 24 h) it was 2.488; in assay [1] (70.2 uM/ml, 48 h), 2.911. Also, the “value of the treated group, Mean value” in assay [1] (70.2 uM/ml, 72 h) is on record as 2.691; in assay [1] (70.2 uM/ml, 96 h) it was 2.98; in assay [2] (35.1 uM/ml, 24 h) it was 2.73; in assay [2] (35.1 uM/ml, 48 h), 2.604; in assay [2] (35.1 uM/ml, 72 h) it was 2.506; in assay [2] (35.1 uM/ml, 96 h), 2.546. Also, the “value of the treated group, Mean value” in assay [2] (70.2 uM/ml, 24 h) is 2.71; in assay [2] (70.2 uM/ml, 48 h), 2.595; in assay [2] (70.2 uM/ml, 72 h), 2.466; in assay [2] (70.2 uM/ml, 96 h), 2.389. In addition, in assay [2], the “course of the value as time goes by (FIG. 12)” value is “increasing”.
